Laboratory results as given in ChEMBL document CHEMBL1148480, “Structure-activity studies of orexin a and orexin B at the human orexin 1 and orexin 2 receptors led to orexin 2 receptor selective and orexin 1 receptor preferring ligands” (J Med Chem, 2004).
Residues, ends and D or L forms follow the SMILES beside them.

Legend:
Orexin receptor type 2 = biological target: T1, Orexin receptor type 2 (Homo sapiens, UniProt O43614); assay: Effective agonist concentration to the human Orexin receptor type 2 was determined using the Xlfit program; assay type: functional
T1 sequence (O43614 whole entry): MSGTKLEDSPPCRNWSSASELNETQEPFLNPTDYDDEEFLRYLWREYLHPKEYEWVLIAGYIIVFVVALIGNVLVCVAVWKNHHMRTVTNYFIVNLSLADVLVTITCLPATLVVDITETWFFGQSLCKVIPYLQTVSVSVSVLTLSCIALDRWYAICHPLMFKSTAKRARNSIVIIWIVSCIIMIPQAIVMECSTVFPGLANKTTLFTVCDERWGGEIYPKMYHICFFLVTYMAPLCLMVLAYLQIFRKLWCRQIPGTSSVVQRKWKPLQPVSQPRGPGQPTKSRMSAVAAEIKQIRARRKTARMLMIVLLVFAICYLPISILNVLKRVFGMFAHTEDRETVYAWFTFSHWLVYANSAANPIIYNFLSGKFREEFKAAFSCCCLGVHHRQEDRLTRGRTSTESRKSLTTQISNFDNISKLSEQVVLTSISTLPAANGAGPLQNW

[1] = Ratio of orexin-1 receptor to orexin-2 receptor in human

SMILES | EC50 (Orexin receptor type 2) | Ratio [1]
CC[C@H](C)[C@H](NC(=O)CNC(=O)[C@H](C)NC(=O)[C@H](C)NC(=O)[C@H](Cc1c[nH]cn1)NC(=O)[C@H](CC(N)=O)NC(=O)CNC(=O)[C@H](CO)NC(=O)[C@H](C)NC(=O)[C@H](CCC(N)=O)NC(=O)[C@H](CC(C)C)NC(=O)[C@H](CC(C)C)NC(=O)[C@H](CCCN=C(N)N)NC(=O)[C@H](CCC(N)=O)NC(=O)[C@H](CC(C)C)NC(=O)[C@H](CCCN=C(N)N)NC(=O)[C@@H]1CCCN1C(=O)[C@H](CCC(N)=O)NC(=O)[C@H](CC(C)C)NC(=O)CN)C(=O)N[C@@H](CC(C)C)C(=O)N[C@H](C(=O)N[C@@H](CCSC)C(=O)O)[C@@H](C)O (H-GLQPRLQRLLQASGNHAAGILTM-OH) | 190 nM | 23.5
CC[C@H](C)[C@H](NC(=O)CNC(=O)[C@H](C)NC(=O)[C@H](C)NC(=O)[C@H](Cc1c[nH]cn1)NC(=O)[C@H](CC(N)=O)NC(=O)CNC(=O)[C@H](C)NC(=O)CNC(=O)[C@H](Cc1c[nH]cn1)NC(=O)[C@H](CC(C)C)NC(=O)[C@H](CC(C)C)NC(=O)[C@H](CCC(=O)O)NC(=O)[C@H](Cc1ccc(O)cc1)NC(=O)[C@H](CC(C)C)NC(=O)[C@H](CCCN=C(N)N)NC(=O)[C@H](CS)NC(=O)[C@H](CO)NC(=O)[C@H](CS)NC(=O)[C@@H](NC(=O)[C@H](CCCCN)NC(=O)[C@H](CCC(N)=O)NC(=O)[C@H](CCCN=C(N)N)NC(=O)[C@H](CS)NC(=O)[C@@H](N)CS)[C@@H](C)O)C(=O)N[C@@H](CC(C)C)C(=O)N[C@H](C(=O)N[C@@H](CC(C)C)C(=O)O)[C@@H](C)O (H-CCRQKTCSCRLYELLHGAGNHAAGILTL-OH) | 790 nM | 1
CC[C@H](C)[C@H](NC(=O)CNC(=O)[C@H](C)NC(=O)[C@H](C)NC(=O)[C@H](Cc1c[nH]cn1)NC(=O)[C@H](CC(N)=O)NC(=O)CNC(=O)[C@H](CO)NC(=O)[C@H](C)NC(=O)[C@H](CCC(N)=O)NC(=O)[C@H](CC(C)C)NC(=O)[C@H](CC(C)C)NC(=O)[C@H](CCCN=C(N)N)NC(=O)[C@H](CCC(N)=O)NC(=O)[C@H](CC(C)C)NC(=O)[C@H](CCCN=C(N)N)NC(=O)CNC(=O)[C@H](CCC(N)=O)NC(=O)[C@H](C)NC(=O)CN)C(=O)N[C@@H](CC(C)C)C(=O)N[C@H](C(=O)N[C@@H](CCSC)C(=O)O)[C@@H](C)O (H-GAQGRLQRLLQASGNHAAGILTM-OH) | 830 nM | 8.9

The remaining lines, values ahead:

EC50 (Orexin receptor type 2) | Ratio [1] | SMILES
210 nM | 11 | CC[C@H](C)[C@H](NC(=O)CNC(=O)[C@H](C)NC(=O)[C@H](C)NC(=O)[C@H](Cc1c[nH]cn1)NC(=O)[C@H](CC(N)=O)NC(=O)CNC(=O)[C@H](CO)NC(=O)[C@H](C)NC(=O)[C@H](CCC(N)=O)NC(=O)[C@H](CC(C)C)NC(=O)[C@H](CC(C)C)NC(=O)[C@H](CCCN=C(N)N)NC(=O)[C@H](CCC(N)=O)NC(=O)[C@H](CC(C)C)NC(=O)[C@H](CCCN=C(N)N)NC(=O)[C@H](C)NC(=O)[C@H](CCC(N)=O)NC(=O)[C@H](CC(C)C)NC(=O)CN)C(=O)N[C@@H](CC(C)C)C(=O)N[C@H](C(=O)N[C@@H](CCSC)C(=O)O)[C@@H](C)O (H-GLQARLQRLLQASGNHAAGILTM-OH)
400 nM | 1.6 | CC[C@H](C)[C@H](NC(=O)CNC(=O)[C@H](C)NC(=O)[C@H](C)NC(=O)[C@H](Cc1c[nH]cn1)NC(=O)[C@H](CC(N)=O)NC(=O)CNC(=O)[C@H](C)NC(=O)CNC(=O)[C@H](Cc1c[nH]cn1)NC(=O)[C@H](CC(C)C)NC(=O)[C@H](CC(C)C)NC(=O)[C@H](CCC(=O)O)NC(=O)[C@H](Cc1ccc(O)cc1)NC(=O)[C@H](CC(C)C)NC(=O)[C@H](CCCN=C(N)N)NC(=O)[C@H](CS)NC(=O)[C@H](CO)NC(=O)[C@H](CS)NC(=O)[C@@H](NC(=O)[C@H](CCCCN)NC(=O)[C@H](CCC(N)=O)NC(=O)[C@H](CCCN=C(N)N)NC(=O)[C@H](CS)NC(=O)[C@H](CS)NC(=O)[C@H](CC(=O)O)NC(=O)[C@@H]1CCCN1)[C@@H](C)O)C(=O)N[C@@H](CC(C)C)C(=O)N[C@H](C(=O)N[C@@H](CC(C)C)C(=O)O)[C@@H](C)O (H-PDCCRQKTCSCRLYELLHGAGNHAAGILTL-OH)
